We go through two compounds from article PMC3547291 (Bioorganic & medicinal chemistry letters, 2012).

Each structure is given as a SMILES string.

One test has as its target T1, FLT3 (Homo sapiens, UniProt P36888).
T1 sequence (P36888 27-993): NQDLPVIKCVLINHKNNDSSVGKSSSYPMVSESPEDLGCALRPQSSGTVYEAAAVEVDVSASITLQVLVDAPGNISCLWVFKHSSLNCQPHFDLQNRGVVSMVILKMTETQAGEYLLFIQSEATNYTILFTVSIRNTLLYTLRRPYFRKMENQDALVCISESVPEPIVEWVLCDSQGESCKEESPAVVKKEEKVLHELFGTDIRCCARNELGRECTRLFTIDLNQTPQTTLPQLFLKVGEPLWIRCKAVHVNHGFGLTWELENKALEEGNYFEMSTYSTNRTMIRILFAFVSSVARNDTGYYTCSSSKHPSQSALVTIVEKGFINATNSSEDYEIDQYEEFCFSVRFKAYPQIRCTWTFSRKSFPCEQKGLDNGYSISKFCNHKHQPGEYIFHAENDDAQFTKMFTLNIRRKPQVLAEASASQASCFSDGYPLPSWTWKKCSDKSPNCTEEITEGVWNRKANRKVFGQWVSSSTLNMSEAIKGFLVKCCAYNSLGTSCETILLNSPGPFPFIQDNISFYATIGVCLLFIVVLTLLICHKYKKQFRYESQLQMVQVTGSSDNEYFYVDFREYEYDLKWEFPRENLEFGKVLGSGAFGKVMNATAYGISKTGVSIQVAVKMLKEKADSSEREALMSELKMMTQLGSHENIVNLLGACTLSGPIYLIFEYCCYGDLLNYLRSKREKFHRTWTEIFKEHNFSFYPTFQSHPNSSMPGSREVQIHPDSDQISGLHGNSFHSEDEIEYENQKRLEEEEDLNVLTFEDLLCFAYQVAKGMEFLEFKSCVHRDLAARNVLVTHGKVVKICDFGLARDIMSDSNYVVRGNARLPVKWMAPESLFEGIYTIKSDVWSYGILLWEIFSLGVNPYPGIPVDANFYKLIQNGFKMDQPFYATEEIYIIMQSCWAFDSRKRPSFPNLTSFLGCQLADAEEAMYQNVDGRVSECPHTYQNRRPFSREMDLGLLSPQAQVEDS
The experiment in a line: Kinase inhibition functional assay. In kind it is biochemical.

Another test addresses PDGFRβ (Homo sapiens, UniProt P09619). The experiment in a line: Kinase inhibition functional assay. The format is biochemical.

Chain of PDGFRβ (P09619 33-1106): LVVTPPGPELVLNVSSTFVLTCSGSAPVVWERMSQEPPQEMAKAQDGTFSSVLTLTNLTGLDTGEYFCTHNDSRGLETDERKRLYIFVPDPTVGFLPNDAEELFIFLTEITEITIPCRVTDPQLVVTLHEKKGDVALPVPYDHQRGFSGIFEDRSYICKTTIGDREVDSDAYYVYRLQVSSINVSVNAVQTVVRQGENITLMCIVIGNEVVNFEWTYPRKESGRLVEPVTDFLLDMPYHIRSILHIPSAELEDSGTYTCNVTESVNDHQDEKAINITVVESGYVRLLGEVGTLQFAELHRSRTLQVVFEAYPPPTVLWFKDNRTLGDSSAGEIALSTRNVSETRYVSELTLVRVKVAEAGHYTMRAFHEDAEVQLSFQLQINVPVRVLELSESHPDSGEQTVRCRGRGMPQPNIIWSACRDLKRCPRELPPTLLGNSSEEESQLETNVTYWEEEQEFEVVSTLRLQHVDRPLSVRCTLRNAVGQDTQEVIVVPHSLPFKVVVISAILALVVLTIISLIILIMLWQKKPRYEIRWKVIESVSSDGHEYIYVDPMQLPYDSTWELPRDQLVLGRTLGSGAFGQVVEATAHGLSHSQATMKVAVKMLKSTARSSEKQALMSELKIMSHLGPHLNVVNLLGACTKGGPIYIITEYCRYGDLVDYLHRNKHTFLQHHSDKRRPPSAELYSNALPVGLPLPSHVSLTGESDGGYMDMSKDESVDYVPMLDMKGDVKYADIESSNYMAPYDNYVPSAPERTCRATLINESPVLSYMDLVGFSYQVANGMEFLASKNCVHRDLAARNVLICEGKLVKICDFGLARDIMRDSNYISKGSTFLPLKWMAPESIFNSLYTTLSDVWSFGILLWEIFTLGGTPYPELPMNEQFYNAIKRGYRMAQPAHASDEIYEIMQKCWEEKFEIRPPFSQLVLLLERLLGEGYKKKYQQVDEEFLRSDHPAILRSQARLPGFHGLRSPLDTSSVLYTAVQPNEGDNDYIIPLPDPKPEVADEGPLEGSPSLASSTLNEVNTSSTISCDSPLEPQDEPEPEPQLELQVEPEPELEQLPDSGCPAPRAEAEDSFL

As usually defined, the IC50 is the midpoint of a concentration-inhibition curve. Consider `Cc1cc(NC(=O)c2ccc(C)c(Nc3nccc(-c4cccnc4)n3)c2)cc(-n2cnc(C)c2)c1` [Compound 2c], for which, at FLT3, the midpoint of inhibition, the IC50, lay at 118 nM.
At PDGFRβ, `Cc1cn(-c2cc(F)cc(NC(=O)c3ccc(C)c(Nc4nccc(-c5cccnc5)n4)c3)c2)cn1` [Compound 2b] gave an IC50 greater than 50000 nM.
